“Also recorded” adds a separate entry of the source. Read-outs that look alike come from different tables or passages of the source.
Tests used:
PC3-MM2 cells = assay: Sulforhodamine B assay, PC3-MM2; format: cell-based; settings: Homo sapiens, PC3MM2; Table 2 biphenyl triazole analogues; mean ± standard deviation
Outline: (§1)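 Cells treated over a 10-point dose range, fixed with trichloroacetic acid, stained with sulforhodamine B, solubilised in 10 mM Tris, absorbance at 565 nm. Growth inhibition computed against time-zero and untreated wells; curves fitted by sigmoidal non-linear regression.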

SKBr3 cells = assay: MTS/PMS cell viability assay, SKBr3; format: cell-based; settings: Homo sapiens, SK-BR-3; Table 2 biphenyl triazole analogues; 72 hr; mean ± standard deviation; read-out: IC50 SKBr3
Outline: (§2)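 Cells seeded at 2000/well in Advanced DMEM/F12 with 10% FBS, attached overnight, then exposed to compound (1% DMSO final) for 72 hr at 37° C. Viable cells counted by MTS/PMS, normalised to 1% DMSO as 100%; IC50 from triplicate experiments.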

[1] = tested on: heat shock proteins Hsp27, Hsp70 and Hsp90; assay: Western blot analyses of heat shock proteins in MCF-7 cell lysates; format: cell-based, human; settings: MCF-7 cells, 24 h, increasing concentrations of 5f
Protocol: (§3) MCF-7 cells were cultured as described above and treated with various concentrations of drug, Geldanamycin (GDA or G) in DMSO (1% DMSO final concentration), or vehicle (DMSO) for 24 hr. Cells were harvested in cold PBS and lysed in RIPA lysis buffer containing 1 mM PMSF, 2 mM sodium orthovanadate, and protease inhibitors on ice for 1 hr. Lysates were clarified at 14000 g for 10 min at 4° C. Protein concentrations were determined using the Pierce BCA protein assay kit per the manufacturer's instructions. Equal amounts of protein (15 μg) were electrophoresed under reducing conditions, transferred to a PVDF membrane, and immunoblotted with the corresponding specific antibodies. Membranes were incubated with an appropriate horseradish peroxidase-labeled secondary antibody, developed with a chemiluminescent substrate, and visualized.

MCF-7 cells = assay: MTS/PMS cell viability assay, MCF-7; format: cell-based; settings: Homo sapiens, MCF7
Outline: as §2

Hsp90 C-terminus = assay: Proteolytic fingerprinting assay of Hsp90 from rabbit reticulocyte lysate; format: binding; settings: 1 mM compound; band not detected for vehicle control
Protocol: e) Proteolytic Fingerprinting Assay
Rabbit reticulocyte (Green Hectares) incubated under conditions of protein synthesis at 30° C. in the presence of compound or vehicle (1% DMSO) for 10 minutes. Each reaction mixture contained 66.6% rabbit reticulocyte and 33.3% ATP regenerating system (10 mM creatine phosphate and 20 μg mL^−1 creatine phosphokinase) and a final concentration of 75 mM KCl. Each reaction mixture contained the indicated amount of compound. After incubating, the samples were immediately placed on ice and the indicated amount of TPCK-treated trypsin (Worthington) was added to each sample. The samples digested on ice for an additional 6 minutes and the reactions were quenched by the addition of Laemmli sample buffer followed by immediate boiling. Equal amounts of each sample were electrophoresed under reducing conditions (12% acrylamide gels), transferred to PVDF, and immunoblotted with an antibody specific to the Hsp90 C-terminus. Membranes were incubated with an appropriate horseradish peroxidase-labeled secondary antibody, developed with a chemiluminescent substrate, and visualized.

MDA-MB-468LN cell line = assay: Promega CellTiter-Glo (CTG) luminescent assay, MDA-MB-468LN; format: cell-based; settings: Homo sapiens; Table 2 biphenyl triazole analogues; 72 hr; mean ± standard deviation
Outline: (§4)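 Antiproliferative activity measured after 72 hr compound treatment by CellTiter-Glo luminescence (ATP-based viability). Selected data cross-checked by MTS/PMS viability assay.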

LNCaP cells = assay: Sulforhodamine B assay, LNCaP; format: cell-based; settings: Homo sapiens, Table 2 biphenyl triazole analogues, mean ± standard deviation
Outline: as §1

JMAR cell line = assay: Promega CellTiter-Glo (CTG) luminescent assay, JMAR; format: cell-based; settings: Table 2 biphenyl triazole analogues, 72 hr, mean ± standard deviation
Outline: as §4

[2] = tested on: Hsp90 client proteins Her2, Akt, Raf-1 and CDK6; assay: Western blot analyses of Hsp90 client protein degradation in MCF-7 cell lysates; format: cell-based, human
Protocol: as §3

MDA1986 cell line = assay: Promega CellTiter-Glo (CTG) luminescent assay, MDA1986; format: cell-based; settings: Table 2 biphenyl triazole analogues, 72 hr, mean ± standard deviation, read-out: IC50 MDA1986
Outline: as §4

IC50 (PC3-MM2 cells): 0.36 ± 0.04 µM
IC50 (SKBr3 cells): 0.17 ± 0.03 µM
IC50 (MCF-7 cells; Table 2 biphenyl triazole analogues, 72 hr, mean ± standard deviation, read-out: IC50 MCF-7): 0.12 ± 0.01 µM
IC50 (MCF-7 cells; read-out: IC50 against MCF-7 cell line): 0.12 µM
IC50 (MDA-MB-468LN cell line): 0.41 ± 0.26 µM
IC50 (LNCaP cells): 0.2 ± 0.04 µM
SMILES: Cc1ccc(Cn2cc(C(=O)Nc3ccc(-c4ccc(OC5CCN(C)CC5)cc4)cc3)nn2)cc1 [5f, 1-(4-Methylbenzyl)-N-(4′-((1-methylpiperidin-4-yl)oxy)-[1,1′-biphenyl]-4-yl)-1H-1,2,3-triazole-4-carboxamide]
heat shock proteins Hsp27, Hsp70, or Hsp90 levels [1]: No increase
50 kDa Hsp90 fragment on trypsin proteolysis (C-terminal Hsp90 antibody) (Hsp90 C-terminus): 50 kDa band was detected
IC50 (JMAR cell line): 0.42 ± 0.07 µM
client proteins Her2, Akt, Raf-1 and CDK6 (Western blot, concentration series) ([2]; MCF-7 cells, 24 h, increasing concentrations): degraded in a concentration-dependent manner
concentration able to deplete Hsp90 client proteins as well as Geldanamycin at 500 nM ([2]; MCF-7 cells, Western blot): 1 µM
Hsp90 client proteins Her2, Akt and Raf-1 (Western blot) ([2]; MCF-7 lysates, 24 h, L = 1/2 and H = 5 times the antiproliferative IC50): decreased; also recorded: Clear degradation
IC50 (MDA1986 cell line): 0.36 ± 0.05 µM

From patent US9994556B2, “Triazole modified coumarin and biphenyl amide-based HSP90 inhibitors” (THE UNIVERSITY OF KANSAS, priority 2014, dated 2018)
